Results reported in patent US20260248126A1, “BIOCIDE” (PURGOS APS, priority 2020, published 2026).

Tests used:
[1] = test system: Canidida albicans ISI 1226; test: Minimum bactericidal concentration (MBC), outgrowth from MIC plates; assay type: cell-based, Candida albicans
Text: Even when no growth is detectable in the MIC tests, it is possible that the microorganisms have survived the treatment i.e., they are not killed but just prevented from growing. In order to test for survivors, MBC plates were subsequently made from the MIC plates.

[2] = test system: Gloeophyllum trabeum. BAM Ebw. 109; test: EN 113 test against wood destroying basidiomycetes (impregnated Scots pine sapwood); assay type: cell-based
[3] = test system: Pseudomonas aeruginosa, ATCC 10145; test: PT6 screening: microbial activity in pre-formulated acrylic paint (total ATP, aerobic and anaerobic growth on agar plate); assay type: cell-based
Description: The microbial activity in relation to in-can preservation of paint was tested using three methods: ATP measurement, Aerobic growth on agar plate and Anaerobic growth on agar plate in low-air conditions. In the tests concentrations of 1, 2 and 5% NBDA was tested. […] Furthermore, no significant dependence on concentration was shown in these specific tests. Specific about the ATP measurements: test and method developed by Luminultra. A sample is taken from the test paint at a given time and the total amount of ATP is measured. Total ATP amount are measured at Day 7 and 30. After every ATP measurement, streaking of test material on agar plates has been performed. Growth test in aerobic and anaerobic environment are running in 1 and 14 days, respectively. • Test organism: Pseudomonas aeruginosa, ATCC 10145 The screening has been continuously expanded so that there are individual start-ups of three different trials. See further information in the overview table, table VIII. Table VIII overview. Samples in test. Commercial biocide is Vinkocide CMIK®. Acrylic paint is standard EN 152 (modified without PT6 biocide). P. aeruginosa are inoculated in 200 μl concentration to paint sample size of 140 ml in a sterile “paint can-shape” container. […] “Anaerobic growth day 30” were inoculated on day 20 and measured on day 31.

[4] = test system: Canidida albicans ISI 1226; test: Minimal inhibitory concentration (MIC), microtiter plate; assay type: cell-based, Candida albicans
Description: For the tested substance. the stock solution was 10%. Minimum inhibitory concentrations (MICs) are defined as the lowest concentration of an antimicrobial that will inhibit the visible growth of a microorganism after a standardized incubation. In the present study, MIC assay was performed by pipetting robot. The principle is that an indicator microorganism at a defined cell density is cultured with a range of concentrations of the test compound, one concentration pr. well in a row on the microtiter plate. For bacteria and yeasts the minimal inhibitory concentration was detected as no increase of optical density (OD), for moulds microtiter plates were read visually. Each indicator organism is tested in duplicate and the MIC is calculated as the average of the two determinations. The tested concentrations of the antimicrobial substances were 2-fold dilutions from 5%. All indicator organisms (see Table 2.) were pre-cultivated in a suitable growth medium and diluted in the same medium to give a final concentration in the assay of ~1×10^3 cfu/ml. The microtiter plates were incubated under specific incubation conditions (see Table 3). [table]

[5] = test system: Coniophora puteana. BAM Ebw. 15; test: EN 113 test against wood destroying basidiomycetes (impregnated Scots pine sapwood); assay type: cell-based
[6] = test system: microbial contamination of PVB dispersion (bacteria count); test: PVB dispersion treated with NBDA: microbial contamination by cATP (LuminUltra); assay type: cell-based; conditions: 25° C.
[7] = test system: selected typical species of contaminants; test: Substitution of conventional biocides with NBDA in product recipes: biocidal function (LuminUltra test, 32° C. incubation, Examples 3-6); assay type: cell-based
Text: Provision and test of the N-sample can be optional.
Ideally, the T, C and N-samples are provided and stored using methods, protocols, raw materials, conditions and the like, which are very close, and ideally identical, mutatis mutandis. In particular, the samples should be subjected to similar or identical microbial contamination during their provision, and or storage if possible.
Samples, such as test-, control- and/or negative control samples are provided according to Example 3. To assess the effect of the biocide(s), microbial contamination is measured, such as according to Example 6, or other conventional methods known in the art.
In short, samples are exposed to microbial contamination (microbial stress test) e.g., by opening a lid and closing it for a defined period of time, or other operations, mimicking a conventional user situation. Alternatively, samples can be inoculated with defined quantities of microorganisms, such as one or more indicator microorganism.
The samples can be divided into different aliquots, and incubated for selected periods at one or more relevant temperatures, such as e.g., one or more of 4° C., room temperature (RT, usually 20° C., 22° C., or 25° C.), 30° C., 32° C., 37° C., 40° C., and/or 60° C.), simulating e.g., appropriate storage, processing and usage conditions.
Microbial contamination of control, test and/or negative control samples can be determined according to Example 6.
ATP, such as intracellular ATP is measured using a commercially available system, such as provided by LumiUltra®, in particular a method using luminase (Aqua Tools, see details below).
In short, a buffering solution and Luminase enzyme are mixed. After daily ATP standard calibration, an aliquot, such as 1 ml of sample is transferred to an 1 ml extraction tube. After dilution in UltraLute resin, the total ATP (content can be established in the luminescence measuring device. 2) 1 ml sample is dissolved in LumiSolve stabilizing agent. […] For further details, see e.g., Aqua Tools (78300 Poissy, France) Quick reference guide QuenchGone21™ Speciality Test Kit QG21S-50/QG21St-100 2G.

CCCCN(CCO)CCO [NBDA, N-butyldiethanolamine]
MBC(%) [1]: 1.25%
Toxic value, Sol. conc. [2]: 1.01-1.43 % w/w
fungicide effect, preventing wood destruction ([2]; concentrations of 0.36%, 0.51%, 0.72%, 1.01% and 1.43%): effective as a fungicide for preventing wood destruction
anti-microbial potential in paint (ATP, aerobic and anaerobic growth) ([3]; 1, 2 and 5% NBDA in acrylic paint): all three concentrations reveal anti-microbial potentials
effect against aerobic bacteria, in-can preservation of paints ([3]; concentrations of 0.5%, 1%, 2%, and 5%): effective against aerobic bacteria such Gram-negative bacteria such as Pseudomonas aeruginosa
MIC (%) [4]: 0.63%
Toxic value, Sol. conc. [5]: >1.43 % w/w
pH ([6]; 0.50% NBDA, after 1 month): 9.73
pH ([6]; 0.50% NBDA, after 1 week): 9.65
pH ([6]; 0.50% NBDA, after 3 months): 9.62
pH ([6]; 0.50% NBDA, after 6 months): 9.58
pH ([6]; 0.50% NBDA, after 1 day): 9.77
pH ([6]; 1.00% NBDA, after 1 month): 9.86
pH ([6]; 1.00% NBDA, after 1 week): 9.89
pH ([6]; 1.00% NBDA, after 3 months): 9.93
pH ([6]; 1.00% NBDA, after 6 months): 9.67
pH ([6]; 1.00% NBDA, after 1 day): 10.2
biocidal effect vs normal biocide package ([7]; Styrene-Butadiene-Rubber (SBR)-emulsion, MIT and/or BIT replaced (Example 16)): comparable and better than the normal biocide package
biocidal effect vs benzalkonium chloride ([7]; algae removing compound, 1-5% (Example 9)): comparable or even surpassing benzalkonium chloride in function
biocidal effect vs benzalkonium chloride ([7]; circulating heat-transfer systems, 1-5% (Example 13)): comparable to benzalkonium chloride
biocidal effect vs normal biocide package ([7]; combination products: dispersions, emulsions, suspensions (Example 19)): comparable and better than the normal biocide package
preservation effect vs food preservatives ([7]; food, comparable amounts (Example 40)): shows compatibility and suitable preservation effect(s)
biocidal effect vs normal biocide package ([7]; hand cleanser (Example 37)): comparable or even better than the normal biocide package
biocidal effect vs conventional biocide ([7]; liquid dishwashing compound, MIT and/or BIT replaced with 0.01-1% (Example 7)): comparable to or even surpassing the conventional biocide
biocidal effect vs benzalkonium chloride ([7]; liquid disinfection compound for pipes, 1-5% (Example 11)): comparable to benzalkonium chloride
biocidal effect vs benzalkonium chloride and glutaraldehyde ([7]; liquid disinfection compound for stables, 1-5% (Example 10)): comparable or even surpassing both benzalkonium chloride and glutaraldehyde in function
biocidal effect vs benzalkonium chloride ([7]; liquid disinfection compound, 1-5% (Example 8)): comparable or even surpassing benzalkonium chloride in function
biocidal effect vs normal biocide package ([7]; moisturizing crème / skin- or face-care product (Example 35)): comparable or even better than the normal biocide package
performance vs MIT/BIT system ([7]; precoat composition containing SBR, 0.5% NBDA (Example 24)): same performance as the origin
biocidal effect vs normal biocide package ([7]; soap (Example 38)): comparable or even better than the normal biocide package
biocidal effect vs normal biocide package ([7]; stabilized suspension, MIT and BIT replaced (Example 18)): comparable and better than the normal biocide package
biocidal effect vs chlorine based solutions ([7]; swimmingpool water (Example 36)): comparable or even better than chlorine based traditional solutions
biocidal effect vs benzoate ([7]; toothpaste, benzoate replaced with similar concentration (Example 34)): comparable or even better than benzoate
biocidal effect vs benzalkonium chloride ([7]; waterborne cooling compound, 1-5% (Example 12)): comparable or surpassing benzalkonium chloride
biocidal effect vs benzalkonium chloride ([7]; watersystems for toilets, washing facilities, 1-5% (Example 14)): comparable to benzalkonium chloride
